Experimental data: PubChem BioAssay (NCI)
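96-well plates; 48 h exposure; 5 concentrations. Endpoints by linear interpolation between flanking doses. Not reached: highest tested concentration assigned. Here, GI50 denotes the concentration required for 50% inhibition of growth. TGI marks complete inhibition of growth.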 Active and inactive are the calls of the source. Cut-off read from the data, not from the text of the source: active = GI50 below about 0.43 µM; inactive = the rest.

How the values were obtained:
Experiment in all cases: NCI-60 cell line screen, 48 h
A498 renal = tested on: A498 renal
BT-549 breast = tested on: BT-549 breast
DU-145 prostate = tested on: DU-145 prostate
KM12 colon = tested on: KM12 colon
SF-539 CNS = tested on: SF-539 CNS
SNB-75 CNS = tested on: SNB-75 CNS
SW-620 colon = tested on: SW-620 colon
UO-31 renal = tested on: UO-31 renal

Structure (SMILES) | GI50 (A498 renal) [µM] | TGI (A498 renal) [µM] | GI50 (BT-549 breast) [µM] | TGI (BT-549 breast) [µM] | GI50 (DU-145 prostate) [µM] | TGI (DU-145 prostate) [µM] | GI50 (KM12 colon) [µM] | TGI (KM12 colon) [µM] | GI50 (SF-539 CNS) [µM] | TGI (SF-539 CNS) [µM] | GI50 (SNB-75 CNS) [µM] | TGI (SNB-75 CNS) [µM] | GI50 (SW-620 colon) [µM] | TGI (SW-620 colon) [µM] | GI50 (UO-31 renal) [µM] | TGI (UO-31 renal) [µM] | outcome (A498 renal) | outcome (DU-145 prostate) | outcome (SNB-75 CNS)
Cc1ccc2c(c1)Sc1c(ccc3ccccc13)N2 | 83.9 | > 100 | 28.5 | > 100 | > 100 | > 100 | 48.7 | > 100 | 20.7 | > 100 | 15.5 | > 100 | > 100 | > 100 | 3.82 | > 100 |  |  | 
NC12CC3CC(C1)CC(C(=O)O)(C3)C2 |  | > 100 |  |  |  |  |  | > 100 |  | > 100 |  | > 100 |  | > 100 |  | > 100 |  |  | 
O=[N+]([O-])c1ccc(C=NC2CCCCC2)cc1 |  | > 100 |  |  |  |  |  | > 100 |  | > 100 |  | > 100 |  | > 100 |  | > 100 |  |  | 
CCOC1Oc2ccc(C)cc2C(=O)/C1=C\Nc1ccc(C(N)=O)cc1 (centres undefined) |  |  | 15.5 | 62.9 | 21.7 | 60.4 | 16.6 | 34.3 | 18.4 | 53.2 | 44.5 | > 100 | 15.2 | 51.2 | 21.2 | 59.7 |  |  | 
CCCC1N2CCCCC2[C@@H]2c3[nH]c4ccccc4c3CCN12 (some centres undefined) |  | > 100 |  |  |  |  |  |  |  | > 100 |  | > 100 |  | > 100 |  | > 100 |  |  | 
CN(C)CCNC(=O)c1cccc2ccc(-c3ccncc3)nc12 |  | 4.34 |  |  |  |  |  | 54.3 |  | 9.64 |  | 9.9 |  | 18.1 |  | 5.37 |  |  | 
Cc1cc(-c2cnn3c(NCC4CC(C)(O)C4)cc(Oc4cccnc4)nc23)ccc1C(=O)NC1CC1 (centres undefined) | 0.435 | > 100 | > 100 | > 100 | 2.26 | > 100 |  |  | 2.01 | > 100 | 2.11 | > 100 | 0.591 | > 100 | 2.02 | > 100 |  |  | 
CC(C)(CO)N1CCN(C(=S)Nc2ccccc2)CC1 |  | > 100 |  | > 100 |  |  |  | > 100 |  | > 100 |  | > 100 |  | > 100 |  | > 100 |  |  | 
Cc1c(C(=O)C/C(=N/NC(=O)C[N+](C)(C)C)C(=O)Nc2ccc(Cl)cc2)[n+](=O)c2ccccc2n1O |  | > 100 |  |  |  |  |  | > 100 |  | > 100 |  | > 100 |  | > 100 |  | > 100 |  |  | 
COCCCNC(=O)C1C(=O)C(=O)N(CCCOC)C1=O (centres undefined) |  | > 100 |  |  |  |  |  |  |  | > 100 |  | > 100 |  | > 100 |  | > 100 |  |  | 
O=C(O)C(CS)Nc1c2ccccc2nc2ccccc12 (centres undefined) |  |  |  |  |  |  |  | > 100 |  | > 100 |  | > 100 |  | > 100 |  | 98 |  |  | 
O=C1c2ccccc2C(=O)N1CCc1ncc[nH]1 |  |  |  |  |  | > 100 |  | > 100 |  | > 100 |  |  |  | > 100 |  | > 100 |  |  | 
C[C@@H]1OC(=O)N2CCCC(=C3SCCCS3)C12 (some centres undefined) |  | > 100 |  |  |  |  |  | > 100 |  | > 100 |  | > 100 |  | > 100 |  | > 100 |  |  | 
C/C(O)=C(\N=O)C(=O)Nc1ccc(Cl)cc1Cl |  | > 100 |  |  |  |  |  | > 100 |  | > 100 |  | > 100 |  | > 100 |  | > 100 |  |  | 
N#C/C(=C\c1ccc2ccccc2c1)c1ccccc1 |  | 76.4 |  |  |  |  |  | > 100 |  | 36.8 |  | 48.6 |  | > 100 |  | 86.7 |  |  | 
COC1(OC)CC2OC1C1N=NN(C(=O)OC(C)(C)C)C21 (centres undefined) |  | > 100 |  |  |  |  |  | > 100 |  | > 100 |  | > 100 |  | > 100 |  | > 100 |  |  | 
COc1ccc(C(=O)C#Cc2cnc(OC)nc2OC)cc1 |  | 35.1 | 25400 |  |  | 4.86 | 56100 | 11.6 |  |  |  | 4.8 | 25200 |  | 19100 |  | inactive | inactive | inactive
O=c1cc(-c2ccccc2)oc2cc(OC/C(=N/O)c3ccccc3)ccc12 |  |  | 12.4 | 27.8 | 25.1 | > 50 | 13.2 | > 50 | 10.8 | 23.6 | 9.01 | 32.6 | > 50 | > 50 | 18.4 | > 50 |  |  | 
